Assay results from patent US11479528B2, “Heat shock protein 90 inhibitors” (TAIPEI MEDICAL UNIVERSITY, priority 2017, dated 2022).
Where two headings read alike, the source gives them in different places.

Tests used:
[1] = Maximum tolerated dose and therapeutic index in vivo; settings: for MTD: in vivo, po
[2] = tested on: breast MDA-MB-231; test: Sulforhodamine B (SRB) assay, breast MDA-MB-231; format: cell-based; settings: Homo sapiens
Protocol: (§1) Human cancer cells were purchased from the American Type Culture Collection (Manassas, Va., USA). These cell lines were cultured in RPMI 1640 medium or DMEM supplemented with 10% FBS (v/v) and pencillin (100 U/mL)/streptomycin (100 ug/mL)/amphotericin B (0.25 ug/mL). Cultures were maintained at 37° C. in a humidified atmosphere of 5% CO2/95% air.
(§2) Cells were seeded in 96-well plates in medium with 5% fetal bovine serum. After 24 h, cells were fixed with 10% trichloroacetic acid to represent cell population at the time of drug addition (T0). After additional incubation of DMSO or drugs for 48 h, cells were fixed with 10% trichloroacetic acid and sulforhodamine B at 0.4% (w/v) in 1% acetic acid was added to stain cells. Unbound sulforhodamine B was washed out by 1% acetic acid and sulforhodamine B-bound cells were solubilized with 10 mmol/L Trizma base. The absorbance was read at a wavelength of 515 nm. Using the following absorbance measurements, such as time zero (T0), control growth (C), and cell growth in the presence of the drug (Tx), the percentage growth was calculated at each of the compound concentrations levels. Percentage growth inhibition was calculated as […].

[3] = Pharmacokinetic profiles in rat; settings: in vivo
Protocol: A pharmacokinetic study was conducted to evaluate the pharmacokinetic properties of compounds of formula (I).

[4] = tested on: leukemia HL60; test: MTT antiproliferative assay, HL60; format: cell-based; settings: Homo sapiens, HL-60
[5] = tested on: human lung NSCLC A549 cancer xenograft; test: Human lung NSCLC A549 cancer xenograft model; format: in vivo; settings: daily oral administration
[6] = tested on: lymphoblast MOLT4; test: MTT antiproliferative assay, MOLT4; format: cell-based; settings: Homo sapiens, MOLT-4
[7] = tested on: human colon HCT116 xenograft; test: Human colon HCT116 xenograft model; settings: po; for TGI, tumor growth inhibition: n = 7-8
Protocol: An in vivo study was conducted to evaluate the efficacy of compounds of formula (I) in suppressing tumor growth in a human colon HCT116 xenograft model.

[8] = molecular target: HSP90 α protein (Homo sapiens, UniProt P07900); test: HSP90 ATP-binding / fluorescence polarization competition assay (enzyme inhibition)
Protocol: To assess the inhibition of HSP90 activity within a cellular context, cells were treated with certain substituted aromatic compounds of formula (I) and the inhibition of HSP90 ATP-binding activity in cells was determined by using an ATP pull-down assay. Cells were treated with the compounds for 24 hours and then lysed in TNESV buffer (50 mM Tris, 2 mM EDTA, […], 1 mM activated sodium orthovanadate, 25 mM NaF, 1% Triton X-100 [pH 7.5]) for 30 min at 4° C. Lysates were spun for 30 min at 12000 rpm at 4° C. Protein (200 ug) was incubated with conditioned γ-ATP-polyacrylamide resin in incubation buffer (10 mM Tris-HCl, 50 mM KCl, 5 mM MgCl2, 20 mM Na2MoO4, 0.01% Nonidet P-40) overnight at 4° C., rotating. The resin was then washed four times with incubation buffer. Bound proteins were isolated by boiling with SDS buffer. For the competition studies, fluorescence polarization assays were performed under the following conditions: each 96-well plate contained 5 nM fluorescent GM (geldanamycin), 30 nM HSP90 α protein, and tested inhibitor in a final volume of 100 uL. For each assay, background wells (buffer only), tracer controls (free, fluorescent GMonly), and bound GM controls (fluorescent GM in the presence of HSP90) were included on each assay plate. The fraction of tracer bound to HSP90 was correlated to the mP value and plotted against log 10 values of competitor concentrations. The inhibitor concentration at which 50% of bound GM was displaced was obtained by fitting the data.

[9] = tested on: HSP90 client proteins, i.e., EGFR, Akt, CDK-4, and HSP70, in HCT-116 tumor cells; test: Western blot of HSP90 client proteins in HCT-116 tumor cells; format: cell-based, human; settings: HCT-116 cells, 24 hours after treatment
Protocol: Western blot analysis was performed to detect cell apoptotic signaling activated by substituted aromatic compounds of formula (I). Cells were harvested by scraping with lysis buffer (1 mM EGTA, 1 mM EDTA, 150 mM NaCl, 1% Triton X-100, 2.5 mM sodium pyrophosphate, 1 mM PMSF, 1 mM Na3VO4, 1 ug/mL leupeptin, 1 ug/mL aprotinin, 5 mM NaF in 20 mM Tris-HCl buffer, pH 7.5). Cell lysates were centrifuged at 13,000 g for 30 min. Total protein was determined and equal amounts of protein were separated by SDS-PAGE and immunoblotted with specific antibodies. Proteins were visualized by enhanced chemiluminescence (Amersham, Buckinghamshire, UK).
Total cellular extracts were obtained 24 hours after treatment.

[10] = tested on: bone marrow K562; test: MTT antiproliferative assay, K562; format: cell-based; settings: Homo sapiens
[11] = tested on: HUVEC cells; test: Sulforhodamine B (SRB) assay, HUVEC; settings: for GI50: Homo sapiens, HUVEC
Protocol: as §1, §2

[12] = tested on: colorectal HCT116; test: Sulforhodamine B (SRB) assay, colorectal HCT116; format: cell-based; settings: Homo sapiens
Protocol: as §1, §2

[13] = tested on: liver Hep3B; test: Sulforhodamine B (SRB) assay, liver Hep3B; format: cell-based; settings: Homo sapiens
Protocol: as §1, §2

[14] = tested on: lung A549; test: Sulforhodamine B (SRB) assay, lung A549; format: cell-based, human; settings: Homo sapiens
Protocol: Human cancer cells were purchased from the American Type Culture Collection (Manassas, Va., USA).
Cells were seeded in 96-well plates in medium with 5% fetal bovine serum. […] Unbound sulforhodamine B was washed out by 1% acetic acid and sulforhodamine B-bound cells were solubilized with 10 mmol/L Trizma base. […] Using the following absorbance measurements, such as time zero (T0), control growth (C), and cell growth in the presence of the drug (Tx), the percentage growth was calculated at each of the compound concentrations levels. Percentage growth inhibition was calculated as […].

[15] = MDA-MB-231, 48 h, read-out: GI50 Breast MDA-MB-231
[16] = MDA-MB-231, read-out: MDA-MB-231 GI50
[17] = HCT-116, 48 h, read-out: GI50 Colorectal HCT116
[18] = 48 h, read-out: GI50 Liver Hep3B
[19] = A549, 48 h, read-out: GI50 Lung A549

| Compound | MTD [1] [mg/kg] | Vd ([3]; iv, 2 mg/kg) [L/kg] | Cmax ([3]; po, 20 mg/kg) [ng/mL] | Tmax ([3]; po, 20 mg/kg) [h] | TGI, tumor growth inhibition ([7]; 100 mg/kg, qd) [%] | IC50 [8] [nM] | expression levels of the chaperone HSP70 [9] | levels of HSP90 client proteins (EGFR, Akt, CDK-4) [9] | TI, Therapeutic Index, ratio of MTD to minimum efficacious dose (MED) [1] | TI, Therapeutic Index measured by GI50(HUVEC)/GI50(A549) [11] | GI50 ([11]; 48 h, read-out: GI50 HUVEC) [nM] | GI50 ([11]; read-out: HUVEC GI50) [nM] | GI50 [2, 15] [nM] | GI50 [2, 16] [nM] | AUC(0-inf) ([3]; iv, 2 mg/kg) [ng·h/mL] | clearance ([3]; iv, 2 mg/kg) [mL/min/kg] | half-life ([3]; iv, 2 mg/kg) [min] | AUC(0-inf) ([3]; po, 20 mg/kg) [ng·h/mL] | bioavailability ([3]; po, 20 mg/kg) [%] | half-life ([3]; po, 20 mg/kg) [min] | other results |
| --- | --- | --- | --- | --- | --- | --- | --- | --- | --- | --- | --- | --- | --- | --- | --- | --- | --- | --- | --- | --- | --- |
| CCN(C(=O)c1cc(C(C)C)c(O)cc1O)c1cccnc1 [Compound 18b, N-ethyl-2,4-dihydroxy-5-isopropyl-N-(pyridin-3-yl)benzamide] | 250 | 5.5 ± 1.1 | 40 ± 13 | 6 ± 2 | 74.3 | 110 ± 3.13 | increase | substantial depletion |  |  |  |  |  |  |  |  |  |  |  |  | GI50 ([2]; MDA-MB-231, Table 2, SRB, read-out: MDA-MB-231 GI50): 90 ± 10 nM; AUC(0-inf) ([3]; iv, 2 mg/kg, AUC(0-inf), IV (2 mg/kg)): 520 ± 14 ng·h/mL; clearance ([3]; iv, 2 mg/kg, CL, IV (2 mg/kg)): ~64 mL/min/kg; half-life ([3]; iv, 2 mg/kg, T1/2, rat, IV (2 mg/kg)): 240 ± 102 min; bioavailability ([3]; oral, 20 mg/kg): 25%; AUC(0-inf) ([3]; po, 20 mg/kg, AUC(0-inf), PO (20 mg/kg)): ~1310 ng·h/mL; half-life ([3]; po, 20 mg/kg, T1/2, rat, PO (20 mg/kg)): ~1660 min; IC50 [4]: 240 ± 40 nM; TGI ([5]; 25 mg/kg): 46.7%; TGI ([5]; 50 mg/kg): 46.9%; TGI ([5]; 100 mg/kg): 50.9%; body weight loss ([5]; 25, 50, and 100 mg/kg): without significant body weight loss; IC50 [6]: 190 ± 10 nM; Loss of Body ([7]; 25 mg/kg, qd): 0%; TGI, tumor growth inhibition ([7]; 25 mg/kg, qd): 55.6%; Loss of Body ([7]; 100 mg/kg, qd): 0%; IC50 [10]: 130 ± 90 nM |
| CC(C)c1cc(C(=O)N(C)c2ccc3[nH]ccc3c2)c(O)cc1O [Compound 20b, 2,4-dihydroxy-N-(1H-indol-5-yl)-5-isopropyl-N-methylbenzamide] | < 250 | 18 ± 4.5 | 82 ± 34 | 2.2 ± 1.8 |  | 115 ± 10.7 | increase | substantial depletion | <2.5 | 3.4 | 570 ± 20 | 570 ± 20 | 70 ± 10 | 70 ± 10 | 142 ± 25 | 237 ± 37 | 78 ± 18 | 533 ± 154 | 37 | 450 ± 78 | GI50 [12, 17]: 1000 ± 490 nM; GI50 ([12]; HCT-116, read-out: HCT116 GI50): 1000 ± 490 nM; GI50 [13, 18]: 180 ± 40 nM; GI50 ([13]; read-out: Hep3B GI50): 180 ± 40 nM; Loss of Body ([7]; 100 mg/kg, qd × 7/5 on 2 off, Day 5): −8.5%; TGI, tumor growth inhibition ([7]; 100 mg/kg, qd × 7/5 on 2 off): 37.7%; GI50 [14, 19]: 170 ± 10 nM; GI50 ([14]; A549, read-out: A549 GI50): 170 ± 10 nM |
| CC(C)c1cc(C(=O)N(C)c2ccc3c(ccn3C)c2)c(O)cc1O [Compound 20g, 2,4-dihydroxy-5-isopropyl-N-methyl-N-(1-methyl-1H-indol-5-yl)benzamide] | < 250 | 4.3 ± 1.3 | 12.8 ± 8.3 | 0.5 ± 0.4 | 83.9 | 106 ± 7.58 | increase | substantial depletion | <2.5 | 2.9 | 820 ± 30 | 820 ± 30 | 100 ± 20 | 100 ± 20 | 288 ± 59 | 117 ± 23 | 42 ± 6 | 36 ± 5 | 1.3 | 132 ± 36 | GI50 [12, 17]: 700 ± 60 nM; GI50 ([12]; HCT-116, read-out: HCT116 GI50): 700 ± 60 nM; GI50 [13, 18]: 570 ± 320 nM; GI50 ([13]; read-out: Hep3B GI50): 570 ± 320 nM; GI50 [14, 19]: 280 ± 20 nM; GI50 ([14]; A549, read-out: A549 GI50): 280 ± 20 nM |
